Legend:
[1] = system: NMDAR; test: Postmortem human frontal cortex: NMDAR signaling and association with PSD-95; type: cell-based; details: AD brain slices, 1 nM, one hour incubation
Experimental: NMDAR activation and signaling were initiated by incubation of approximately 10 mg of in vitro treated brain slices with either LMKR (basal) or LMKR containing 10 μM NMDA and 1 μM glycine at 37° C. for 30 minutes. […] Ligand stimulation was terminated by the addition of 1 ml of ice-cold Ca^2+-free K-R containing 0.5 mM EGTA and 0.1 mM EDTA.
Brain slices were harvested by a brief centrifugation and were homogenized in 0.25 ml of ice-cold immunoprecipitation buffer. The homogenates were centrifuged at 1000×g for 5 minutes (4° C.) and the supernatant (post-mitochondrial fraction) is sonicated for 10 seconds on ice. […] The resultant lysates are then cleared by centrifugation at 50,000×g for 5 minutes and diluted with 0.75 ml of immunoprecipitation buffer. Protein concentrations are measured by Bradford method (Bio-Rad).
To determine the NMDAR signaling and the NMDAR complexes association with PSD-95 [also known as Disks large homolog 4 (DLH4)], the levels of NMDAR subunits, PSD-95 and NMDAR-associated signaling molecules were measured in anti-NR1 immunoprecipitates.
In these studies, brain slice lysates (200 μg) were immunoprecipitated overnight (about 18 hours) at 4° C. with 2 μg of immobilized anti-NR1 onto covalently conjugated protein A-agarose beads (Pierce-ENDOGEN). […]

[2] = system: IL-6, TNF-α and IL-1β; test: ICV Aβ42 infusion mouse model: cytokine levels (fluorescence ELISA); type: in vivo
Experimental: Following centrifugation, the resultant lysate was then dilute with 500 μl (total volume 600 μl) and used as the source of cytokines.
Plates were washed 3 times with ice-cold 50 mM Tris HCl (pH 7.4) and incubated at 30° C. with 100 μl of lysate derived from the above mentioned tissues for 1 hour.
Plates were washed 3 times with ice-cold 50 mM Tris HCl (pH 7.4) and incubated at 30° C. with 0.5 μg/well un-conjugated rabbit anti-TNF-α, anti-IL-6 and anti-IL-1β for 1 hour. After two washes with 50 mM Tris HCl (pH 7.4), each well was incubated in 0.5 μg/well FITC-conjugated anti-rabbit IgG (human and mouse absorbed) for 1 hour at 30° C. Plates were washed twice with 200 μl ice-cold Tris HCl, pH 7.4 and the residual FITC signals were determined by multimode plate reader, DTX880 (Beckman). Each lysate was surveyed twice.

[3] = system: NFT and Aβ42 aggregates; test: ICV Aβ42 infusion mouse model: immunohistochemistry of NFT and Aβ42 aggregates; type: in vivo; details: 10 mg/kg twice daily
Experimental: One section was immunostained with anti-NFT or -PHF.
Brain tissues were fixed at 4° C. in 0.15 M phosphate-buffered 10% formalin, pH 7.4 for 2 weeks, paraffin embedded, serially sectioned at 5 μm, and processed for brightfield immunohistochemistry as described. The […] but not Aβ42-1. Specimens were examined using a Nikon FXA microscope with a Princeton Instruments CCD camera and recorded digitally.
The correlations between the amount of NFT/PHF immunoreactivity and Aβ42-positive material accumulated within mature neurons were also determined.

[4] = system: α7nAChR; type: cell-based, human; details: AD and Aβ42-treated control brain slices
[5] = system: tau (pSer202, pThr231, pThr181); test: ICV Aβ42 infusion mouse model: tau phosphorylation; type: in vivo; details: 10 mg/kg twice daily
Experimental: The levels of phosphorylated tau (pSer202tau, pThr231tau and pThr181tau) as well as total tau precipitated (loading controls) were assessed by Western blotting using specific antibodies directed against each of the phosphoepitopes and the anti-tau, respectively.

[6] = system: voltage-gated Ca2+ channel mediated Ca2+ influx; type: in vivo, mouse; details: 10 mg/kg twice daily
[7] = system: insulin receptor (IR); test: Postmortem human frontal cortex: IR activation and signaling; type: cell-based; details: AD and Aβ42-treated control brain slices; 1 nM
Experimental: IR activation and signaling were initiated by incubation of approximately 10 mg of in vitro treated brain slices with either KR (basal) or KR containing 1 nM insulin at 37° C. for 30 minutes. […] Ligand stimulation was terminated by the addition of 1 ml of ice-cold Ca^2+-free K-R containing 0.5 mM EGTA and 0.1 mM EDTA. Brain slices were harvested by a brief centrifugation and were homogenized in 0.25 ml of ice-cold immunoprecipitation buffer. The homogenates were centrifuged at 1000×g for 5 minutes (4° C.) and the supernatant (post-mitochondrial fraction) is sonicated for 10 seconds on ice. […] The resultant lysates are then cleared by centrifugation at 50,000×g for 5 minutes and diluted with 0.75 ml of immunoprecipitation buffer. Protein concentrations are measured by Bradford method (Bio-Rad).
The blots were stripped and re-probed with anti-IRβ to assess the loading as appropriate.

[8] = system: FLNA-TLR4 association; test: FLNA association with TLR4 in organotypic frontocortical slice cultures; type: cell-based, rat; details: 100 nM Aβ42, 16 hours, compound added simultaneously
Experimental: Tissue was harvested and solubilized, and a specific antibody against FLNA was used to immunoprecipitate FLNA and associated proteins. The FLNA immunoprecipitate was size-fractionated using SDS-PAGE, transferred and probed with specific antibodies directed against each of the following receptors: α7nAChR, TLR4, IR and MOR.
Rat brain slice organotypic culture methods were modified from those published previously. [Adamchik et al., Brain Res Brain Res Protoc 5:153-158 (2000).] FCX slices ([…]) were transferred to sterile, porous Millicell-CM inserts (0.4 μm). Each culture insert unit contained two brain slices and was placed into individual wells of a 12-well culture tray in 2 ml medium: 50% MEM with Earl's salts, 2 mM L-glutamine, 25% Earl's balanced salt solution, 6.5 g/l D-glucose, 20% fetal bovine serum (FBS), 5% horse serum, 25 mM HEPES buffer, pH 7.2, and […]. […]
The level of FLNA-associated α7nAChRs was determined using a co-immunoprecipitation/Western blotting method as described previously. […] The levels of FLNA-associated α7nAChR, TLR4, IR and MOR were assessed by Western blotting using specific antibodies directed against the respective proteins and the blot stripped and re-probed for FLNA for immunoprecipitation/loading control.

[9] = system: NMDAR; type: cell-based, human; details: AD and Aβ42-treated control brain slices
[10] = system: tau (pSerine202, pThreonine231, pThreonine181); test: LPS-induced tau phosphorylation in postmortem human hippocampal slices; type: cell-based; details: 1 nM compound, 1 hour
Experimental: The three phosphoepitopes of tau were detected in immunoprecipitates using specific antibodies using Western blots (WB).
The slices are carefully separated in 10 ml of oxygenated ice-cold dissection medium with two pairs of fine forceps and gentle shaking.
The reaction was terminated by diluting with 1.5 ml of ice-cold 1 mM EDTA-containing Ca^2+-free Kreb's-Ringer and centrifuged for 10 minutes at 15,000×g (4° C.).
After removal of the supernatant, the slices were homogenized to prepare post-mitochondrial (P2) fraction.
The anti-tau immunocomplexes were enriched by incubation with 50 μl of protein A/G-conjugated agarose beads at 4° C. and centrifugation.

[11] = system: Aβ42-α7nAChR complexes; test: Postmortem human frontal cortex: Aβ42-α7nAChR complexes; type: cell-based; details: AD and Aβ42-treated control tissue; 0.1 and 1 nM
Experimental: Postmortem frontal cortex tissues were gradually thawed (from −80° C. to −20° C.) and were sliced using a chilled McIlwain tissue chopper (200 μm×200 μm×3 mm). […] Following two additional washes with 1 ml of ice-cold K-R, brain slices were suspended in 1 ml of K-R.
Incubation continued for 1 hour in the dark to minimize light destruction of the test agents. […] Reaction was terminated by the addition of 1.5 ml of ice-cold Ca^2+-free K-R. Tissue slices were harvested by a brief centrifugation and used as the tissue sources for various assays.

[12] = system: tau phosphorylated at S202, T231 and T181; test: Postmortem human frontal cortical synaptosomes: Aβ42-induced tau phosphorylation with VAKGL decoy; type: cell-based; details: postmortem control frontocortical tissue
Experimental: FIG. 34 VAKGL (SEQ ID NO: 1) pentapeptide (10 μM) blocks Compound C0105's prevention of tau phosphorylation. Again using postmortem frontal cortical synaptosomes, the VAKGL pentapeptide blocks C0105's reduction in tau phosphorylation at all three phosphorylation sites found in neurofibrillary tangles. Western blots (FIG. 34A), in which numerals outside of and to the left of the blots are as discussed before, were analyzed by densitometric quantitation (FIG. 34B). Data are means±SEM. n=3. *p<0.01 vs. the respective basal level; # p<0.01 vs. Aβ42-exposed tissues.
In postmortem control frontocortical tissue, the FLNA pentapeptide binding site of Compound C0105 (VAKGL of SEQ ID NO: 1) was used as a decoy to block the attenuation of FLNA association with α7nAChR and TLR4 by Compound C0105 (FIG. 33).

CN1CCC2(CC1)NCC(=O)N2Cc1ccccc1 [Compound C0105]
NMDAR signaling impairment (six measures) [1]: normalized all six measures | Aβ42-induced IL-6 production ([2]; 10 mg/kg twice daily): completely abolished | Suppression of IL-1β level ([2]; 10 mg/kg twice daily): 80% | Suppression of TNF-α level ([2]; 10 mg/kg twice daily): 86% | Decrease of levels of IL-6, TNF-α and IL-1 ([2]; mice receiving C0105): 80-100% | Amyloid deposits (IHC, FCX and HP) [3]: prevents | NFT formation (IHC, FCX and HP) [3]: prevents | Functioning of α7nAChR (calcium influx after receptor stimulation) [4]: preserves functioning | Tau phosphorylation at three sites [5]: suppressed tau phosphorylation at all three phosphorylation sites | K+-evoked calcium influx [6]: restored it | IR signaling assemblies [7]: Normalization of receptor function | Aβ42-induced increase in FLNA-TLR4 association [8]: reduced the increase in FLNA-TLR4 at 1 and 10 nM | Functioning of NMDAR (calcium influx after receptor stimulation) [9]: preserves functioning | LPS-induced tau phosphorylation [10]: reduces LPS-induced tau phosphorylation | Aβ42-α7nAChR complexes [11]: reduces Aβ42-α7nAChR complexes | Aβ42-induced tau phosphorylation [12]: inhibits tau phosphorylation
